Assay: Compound exposure in mice (LC-MS/MS, brain tissue binding)
Format: in vivo
Conditions: mouse
Protocol: Mice and rats were maintained on 12/12 h light/dark cycle with food available ad libitum. Drug treatment was prepared in a vehicle of 1 % carboxymethylcellulose (CMC):Tween80 (99.5:0.5). Twelve-week-old wild-type male mice (129S6, Taconic Biosciences, Hudson, NY, USA) or rats (Wistar, Charles River Laboratories) were administered compound p.o. without prior fasting and euthanized by CO2 asphyxiation at specified times post-dosing. After extraction of the brain, the olfactory bulb and hindbrain were removed and the cerebral hemispheres separated (mice) or cut in 4 pieces (rats). The cerebellum was removed for bioanalysis of the compound. CSF was collected from the cisterna magna and blood from a cardiac puncture.
Cerebellums were homogenized in a Mini-BeadBeater (Biospec Products, Inc., Bartlesville, OK, USA). Brain samples, plasma, and CSF were prepared for LC-MS/MS by precipitating proteins with acetonitrile and vacuum filtration in the presence of an internal standard. Standards were prepared in the corresponding matrix. FRM-36143 was resolved by HPLC (Shimadzu) using a reverse-phase C18 Kinetex column (30X2.1 mM; Phenomenex, Torrance, CA, USA). Following separation, the column effluent was introduced into a triple quadrupole mass spectrometer (API 5500, Applied Biosystems), optimized for detection of FRM-36143 and using multiple reaction monitoring with mass transition of 390.3 > 215.2.
The unbound fraction in brain homogenate (fu,b) was determined in triplicate in the Rapid Equilibrium Dialysis device (8000 Da molecular weight cut-off membrane, Thermo Scientific/Pierce Biotechnology, Rockford, IL, USA). Briefly, FRM-36143 stock solution (0.1 mg/mL in acetonitrile) was added to fresh mouse brain homogenate (1:4 dilution with PBS) to achieve a final concentration of 1 μg/mL. Aliquots of the brain homogenate (300 μL) were loaded into the donor side, and 500 μL of PBS into the receiver side of the dialyzer. […]

concentration at 6 h (male, 129S6, brain (unbound), 30 mg/kg oral, 6 h): 427 nM | Unbound brain Cmax (10 mg/kg oral): 235 nM
SMILES: COc1nc(C2=NOC[C@H](c3cc4ccccc4o3)N2)ccc1-n1cnc(C)c1 [FRM-36143, (R)-5-(benzofuran-2-yl)-3-(6-methoxy-5-(4-methyl-1H-imidazol-1-yl)pyridin-2-yl)-5,6-dihydro-4H-1,2,4-oxadiazine]
Exposure or efficacy at higher dose (90 mg/kg vs 30 mg/kg, data not shown): did not achieve significantly higher exposure or efficacy
